The source of these data is patent US11534438B2, “Composition containing piperacillin, pharmaceutical formulation thereof and use thereof” (priority 2017, dated 2022).

Assay [1] relates to ATCC19606 (a standard strain of A. baumannii). Nature of the assay: Animal protection experiment, mice infected with ATCC19606. It counts as in vivo, Acinetobacter baumannii. To be noted: for ED50: Acinetobacter baumannii; for inhibitory effect on the standard strain of A. baumannii without drug resistance (in words): infected ICR mice, summary of Table 1. As to the method: (§1) Tested animals were ICR mice. Tested bacterial strains were ATCC19606 (a standard strain of A. baumannii), CBP-R (a carbapenem-resistant strain of A. baumannii), and CPZ/S-R (a cefoperazone-sulbactam-resistant strain of A. baumannii). Among them, the standard strain was obtained from ATCC, and the other strains were clinically isolated.
(§2) Determining the dose ranges of the tested samples: The tested strains were diluted with 5% high active dry yeast to obtain bacterial dilutions of different concentrations (10^−1, 10^−2, 10^−3, and 10^−4), and then intraperitoneally injected into the tested animals in 0.5 ml/mice. The number of dead mice after infection was recorded. The minimum bacterial dose, which kills 100% members of the mice, was recorded as 1 MLD. The mice were infected with 1 MLD of bacteria which was formulated with 5% high active dry yeast Immediately and 6 hours after the infection, a preliminary experiment was carried out with high, median and low dosages of the tested samples, and the survival numbers of the mice after infection were recorded. Based on the results of the preliminary experiment, the administration dosages of the tested samples were designed for the animal protection experiment.
(§3) Animal protection experiment: After fasting with water only for 18 h, the mice (half male and female, 25-30 g body weight) were randomly divided into: (1) ATCC19606 group, (2) CBP-R group, and (3) CPZ/S-R group. Each group was treated with five concentrations of the samples, and included 10 animals. In addition, 10 animals were incorporated as a control group. Each mouse was intraperitoneally injected with 0.5 ml of 1 MLD bacterial solution to establish an infection model. At 0 h and 6 h after infection, the mice were subcutaneously injected with different concentrations of the tested samples, 0.2 ml/mice, and the mice of the control group were injected with the same volume of sterilized water. The animals were observed continuously for 7 days, and the death of animals in each group was recorded. The 50% effective dose (ED50) of each tested sample was calculated by the Bliss method. Smaller ED50 means that the tested sample has better anti-bacterial effect in vivo, and better protective effect on the experimental animals.

Assay [2] has as its system CPZ/S-R (a cefoperazone-sulbactam-resistant strain of A. baumannii). Description: Animal protection experiment, mice infected with CPZ/S-R. It counts as in vivo. To be noted: Acinetobacter baumannii, read-out: ED50 for animals infected with A. baumannii, CPZ/S-R a cefoperazone-sulbactam resistant A. baumannii. The method, then: as §1
as §2, with “Based on the results of the preliminary experiment, the administration dosages of the tested samples were designed for the animal protection experiment.” left out
Animal protection experiment: After fasting with water only for 18 h, the mice (half male and female, 25-30 g body weight) were randomly divided into: (1) ATCC19606 group, (2) CBP-R group, and (3) CPZ/S-R group. […] The animals were observed continuously for 7 days, and the death of animals in each group was recorded. […]

The subject of assay [3] is CBP-R (a carbapenem-resistant strain of A. baumannii). Nature of the assay: Animal protection experiment, mice infected with CBP-R. It counts as in vivo, Acinetobacter baumannii. To be noted: for ED50: Acinetobacter baumannii, read-out: ED50 for animals infected with A. baumannii, CBP-R a carbapenem-resistant A. baumannii; for inhibitory / anti-bacterial effect on drug-resistant strains of A. baumannii (in words): infected ICR mice, drug-resistant strains (CBP-R and CPZ/S-R), summary of Table 1. As to the method: as §1, §2, §3

In the next assay the test system is A. baumannii. The settings on record: it is reported; cited from earlier work.
Setting [4] is: ICR mice, 1 MLD i.p. infection, s.c. dosing at 0 h and 6 h, 7 days observation, Bliss method.

Read-outs that look alike come from different tables or passages of the source.

Turning to `C[C@@H](O)[C@H]1C(=O)N2C(C(=O)O)=C(S[C@@H]3CN[C@H](C(=O)N(C)C)C3)[C@H](C)[C@H]12` [Meropenem], the ED50 in assay [1] (ATCC19606, ICR mice, 1 MLD i.p. infection, s.c. dosing at 0 h and 6 h, 7 days observation, Bliss method, read-out: ED50 for animals infected with A. baumannii, ATCC19606 a standard strain) was below 20 mg/kg; in assay [2] (setting [4]), 100 to 200 mg/kg; in assay [3] (setting [4]), above 200 mg/kg. Besides, the “inhibitory effect on the standard strain of A. baumannii without drug resistance (in words)” value in assay [1] was “more advantageous in pharmaceutical efficacy”. For the same compound, the “inhibitory / anti-bacterial effect on drug-resistant strains of A. baumannii (in words)” value in assay [3] is given as “significantly decreased inhibitory effect”.

As to `CCN1CCN(C(=O)N[C@@H](C(=O)N[C@@H]2C(=O)N3[C@@H]2SC(C)(C)[C@@H]3C(=O)O)c2ccccc2)C(=O)C1=O` [piperacillin], the “resistance rate of A. baumannii” value in the assay with A. baumannii was “over 70%”.

On to `CC1(C)[C@H](C(=O)O)N2C(=O)C[C@H]2S1(=O)=O` [Sulbactam, (2S,5R)-3,3-dimethyl-7-oxo-4-thia-1-azabicyclo[3.2.0]heptane-2-carboxylic acid-4,4-dioxide], for which the ED50 in assay [1] (ATCC19606, read-out: ED50 for animals infected with A. baumannii, ATCC19606 a standard strain) is below 20 mg/kg; in assay [2], above 200 mg/kg; in assay [3] it was 100 to 200 mg/kg. Also, the “inhibitory effect on the standard strain of A. baumannii without drug resistance (in words)” value in assay [1] is on record as “more advantageous in pharmaceutical efficacy”. Besides, the “inhibitory / anti-bacterial effect on drug-resistant strains of A. baumannii (in words)” value in assay [3] is recorded as “significantly decreased inhibitory effect”.
